{"source": "PubChem BioAssay (NCI)", "assay_in_all_cases": "growth of human tumour cells (NCI), 48 h", "key": {"NCI-H226 lung": {"tested_on": "NCI-H226 lung"}, "NCI-H23 lung": {"tested_on": "NCI-H23 lung"}, "NCI-H460 lung": {"tested_on": "NCI-H460 lung"}, "NCI-H522 lung": {"tested_on": "NCI-H522 lung"}, "NCI/ADR-RES ovarian": {"tested_on": "NCI/ADR-RES ovarian"}, "OVCAR-4 ovarian": {"tested_on": "OVCAR-4 ovarian"}, "OVCAR-5 ovarian": {"tested_on": "OVCAR-5 ovarian"}, "OVCAR-8 ovarian": {"tested_on": "OVCAR-8 ovarian"}, "PC-3 prostate": {"tested_on": "PC-3 prostate"}, "RPMI-8226 leukemia": {"tested_on": "RPMI-8226 leukemia"}, "RXF 393 renal": {"tested_on": "RXF 393 renal"}, "SF-268 CNS": {"tested_on": "SF-268 CNS"}, "SF-295 CNS": {"tested_on": "SF-295 CNS"}, "SF-539 CNS": {"tested_on": "SF-539 CNS"}, "SK-MEL-2 melanoma": {"tested_on": "SK-MEL-2 melanoma"}, "SK-MEL-28 melanoma": {"tested_on": "SK-MEL-28 melanoma"}, "SK-MEL-5 melanoma": {"tested_on": "SK-MEL-5 melanoma"}, "SK-OV-3 ovarian": {"tested_on": "SK-OV-3 ovarian"}, "SN12C renal": {"tested_on": "SN12C renal"}, "SNB-19 CNS": {"tested_on": "SNB-19 CNS"}, "SNB-75 CNS": {"tested_on": "SNB-75 CNS"}, "SW-620 colon": {"tested_on": "SW-620 colon"}, "T-47D breast": {"tested_on": "T-47D breast"}, "TK-10 renal": {"tested_on": "TK-10 renal"}, "U251 CNS": {"tested_on": "U251 CNS"}, "UACC-257 melanoma": {"tested_on": "UACC-257 melanoma"}, "UACC-62 melanoma": {"tested_on": "UACC-62 melanoma"}, "UO-31 renal": {"tested_on": "UO-31 renal"}}, "note": "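Five concentrations, 48 hours, 96-well plates. GI50 is the concentration that inhibits growth by half. At the TGI there is no net growth.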"}
{"smiles": "C#Cc1nc(/C=C/C(=O)NO)cs1", "values": [{"measurement": "TGI", "setting": "NCI-H226 lung", "result": 36.6, "unit": "µM"}, {"measurement": "GI50", "setting": "NCI-H23 lung", "result": 1.3, "unit": "µM"}, {"measurement": "TGI", "setting": "NCI-H23 lung", "result": 2.71, "unit": "µM"}, {"measurement": "GI50", "setting": "NCI-H460 lung", "result": 3.15, "unit": "µM"}, {"measurement": "TGI", "setting": "NCI-H460 lung", "result": 19.4, "unit": "µM"}, {"measurement": "GI50", "setting": "NCI-H522 lung", "result": 0.211, "unit": "µM"}, {"measurement": "TGI", "setting": "NCI-H522 lung", "result": 0.44, "unit": "µM"}, {"measurement": "GI50", "setting": "NCI/ADR-RES ovarian", "result": 1.15, "unit": "µM"}, {"measurement": "TGI", "setting": "NCI/ADR-RES ovarian", "result": 34.1, "unit": "µM"}, {"measurement": "GI50", "setting": "OVCAR-4 ovarian", "result": 1.91, "unit": "µM"}, {"measurement": "TGI", "setting": "OVCAR-4 ovarian", "result": 4.28, "unit": "µM"}, {"measurement": "GI50", "setting": "OVCAR-5 ovarian", "result": 2.34, "unit": "µM"}, {"measurement": "TGI", "setting": "OVCAR-5 ovarian", "result": 6.11, "unit": "µM"}, {"measurement": "GI50", "setting": "OVCAR-8 ovarian", "result": 2.24, "unit": "µM"}, {"measurement": "TGI", "setting": "OVCAR-8 ovarian", "result": 11.5, "unit": "µM"}, {"measurement": "GI50", "setting": "PC-3 prostate", "result": 4.52, "unit": "µM"}, {"measurement": "TGI", "setting": "PC-3 prostate", "result": 23.7, "unit": "µM"}, {"measurement": "GI50", "setting": "RPMI-8226 leukemia", "result": 2.03, "unit": "µM"}, {"measurement": "TGI", "setting": "RPMI-8226 leukemia", "result": 7.65, "unit": "µM"}, {"measurement": "GI50", "setting": "RXF 393 renal", "result": 1.25, "unit": "µM"}, {"measurement": "TGI", "setting": "RXF 393 renal", "result": 2.91, "unit": "µM"}, {"measurement": "GI50", "setting": "SF-268 CNS", "result": 2.24, "unit": "µM"}, {"measurement": "TGI", "setting": "SF-268 CNS", "result": 5.08, "unit": "µM"}, {"measurement": "GI50", "setting": "SF-295 CNS", "result": 1.91, "unit": "µM"}, {"measurement": "TGI", "setting": "SF-295 CNS", "result": 3.56, "unit": "µM"}, {"measurement": "GI50", "setting": "SF-539 CNS", "result": 1.62, "unit": "µM"}, {"measurement": "TGI", "setting": "SF-539 CNS", "result": 3.12, "unit": "µM"}, {"measurement": "GI50", "setting": "SK-MEL-2 melanoma", "result": 4.58, "unit": "µM"}, {"measurement": "TGI", "setting": "SK-MEL-2 melanoma", "result": 17.6, "unit": "µM"}, {"measurement": "GI50", "setting": "SK-MEL-28 melanoma", "result": 4.02, "unit": "µM"}, {"measurement": "TGI", "setting": "SK-MEL-28 melanoma", "result": 33.7, "unit": "µM"}, {"measurement": "GI50", "setting": "SK-MEL-5 melanoma", "result": 3.6, "unit": "µM"}, {"measurement": "TGI", "setting": "SK-MEL-5 melanoma", "result": 14, "unit": "µM"}, {"measurement": "GI50", "setting": "SK-OV-3 ovarian", "result": 3.32, "unit": "µM"}, {"measurement": "TGI", "setting": "SK-OV-3 ovarian", "result": 13.4, "unit": "µM"}, {"measurement": "GI50", "setting": "SN12C renal", "result": 5.89, "unit": "µM"}, {"measurement": "TGI", "setting": "SN12C renal", "result": 85, "unit": "µM"}, {"measurement": "GI50", "setting": "SNB-19 CNS", "result": 6.8, "unit": "µM"}, {"measurement": "TGI", "setting": "SNB-19 CNS", "result": 24.3, "unit": "µM"}, {"measurement": "GI50", "setting": "SNB-75 CNS", "result": 1.11, "unit": "µM"}, {"measurement": "TGI", "setting": "SNB-75 CNS", "result": 2.56, "unit": "µM"}, {"measurement": "GI50", "setting": "SW-620 colon", "result": 2.07, "unit": "µM"}, {"measurement": "TGI", "setting": "SW-620 colon", "result": 5.08, "unit": "µM"}, {"measurement": "GI50", "setting": "T-47D breast", "result": 2.17, "unit": "µM"}, {"measurement": "TGI", "setting": "T-47D breast", "result": 7.44, "unit": "µM"}, {"measurement": "GI50", "setting": "TK-10 renal", "result": 2.15, "unit": "µM"}, {"measurement": "TGI", "setting": "TK-10 renal", "result": 8.1, "unit": "µM"}, {"measurement": "GI50", "setting": "U251 CNS", "result": 2.44, "unit": "µM"}, {"measurement": "TGI", "setting": "U251 CNS", "result": 6.84, "unit": "µM"}, {"measurement": "GI50", "setting": "UACC-257 melanoma", "result": 1.55, "unit": "µM"}, {"measurement": "TGI", "setting": "UACC-257 melanoma", "result": 11, "unit": "µM"}, {"measurement": "GI50", "setting": "UACC-62 melanoma", "result": 2.14, "unit": "µM"}, {"measurement": "TGI", "setting": "UACC-62 melanoma", "result": 8.56, "unit": "µM"}, {"measurement": "GI50", "setting": "UO-31 renal", "result": 0.182, "unit": "µM"}, {"measurement": "TGI", "setting": "UO-31 renal", "result": 0.341, "unit": "µM"}]}
